In patent US7138262B1, “High mannose proteins and methods of making high mannose proteins” (Shire Human Genetic Therapies, Inc., priority 2000, dated 2006):

What was measured:
[1] = tested on: HT-1080 cells producing GA-GCB; test: Roller bottle production of glucocerebrosidase (GA-GCB) in cells treated with mannosidase inhibitors; type: cell-based, human; settings: for Glucocerebrosidase Activity, Harvest 1: medium harvested about every 24 hours, specific activity 2,500 Units/mg
Experimental: Ten roller bottles (surface area, 1700 cm^2 each) were seeded in Growth Medium (DMEM with 10% calf serum) with HT-1080 cells producing GA-GCB. Following two weeks of growth, the medium was aspirated and 200 mL of fresh Production Medium (DMEM/F12, 0% calf serum) was added to three sets of roller bottles. Two sets of 4 roller bottles were treated with 1 μg/mL of either kifunensine or swainsonine. The third group of two roller bottles received no drug treatment. After approximately 24 hours, the medium from each roller bottle was harvested, pooled and a sample taken for GA-GCB enzymatic activity analysis. This procedure was repeated for seven days. […] Absolute levels of the enzyme, however, varied according to drug treatment group with the following average GA-GCB production levels observed across the seven harvests: 38.3±3.5 mg/L (control, no drug treatment), 24.5±4.0 mg/L (swainsonine, 1 μg/mL), and 21.3±2,8 mg/L (kifunensine, 1 μg/mL).

[2] = tested on: mouse J774E cells; test: Internalization (uptake) of glucocerebrosidase into J774E macrophage cells, with or without mannan; type: cell-based; settings: producing cells treated with 1 μg/mL of drug
Experimental: GA-GCB produced in HT-1080 cells was used in an in vitro assay to determine uptake efficiency in a mouse macrophage cell line. The specific objective of the experiment was to determine the absolute and mannose receptor-specific uptake of GA-GCB in mouse J774E cells. One day prior to assay, J774E cells were plated at 50,000 cells/cm^2 in 12 well plates in Growth Medium. For the assay, 0.5 mL of Production Medium (DMEM/F12), 0% calf serum) containing 50 nM vitamin D3 (1,2-5, Dihydroxy vitamin D3) was added to the cells. Unpurified GA-GCB (from harvest 4, Table 1) was added to the test wells at a final concentration of 10 μg/mL in the presence or absence of 2 μg/mL mannan (a competitor for the mannose receptor). Three different forms of GA-GCB were used: GA-GCB from cells treated with kifunensine (1 μg/mL), GA-GCB from cells treated with swainsonine (1 μg/mL), and GA-GCB (1 μg/mL) from untreated cells. Control wells received no GA-GCB. The wells were incubated for 4 hours at 37° C., then washed extensively in buffered saline, scraped into GA-GCB enzyme reaction buffer, passed through 2 freeze/thaw cycles, and clarified by centrifugation. The supernantant was then quantitatively tested for enzyme activity and total protein. Internalization of GA-GCB into mouse J744E cells is shown in Table 2 and is reported as Units/mg of cell lysate. […]

[3] = tested on: HT-1080 cells producing GA-GCB; test: Isoelectric focusing (IEF) analysis of GA-GCB glycoforms from cells treated with kifunensine or swainsonine; type: cell-based, human; settings: for apparent isoelectric point (pI) of GA-GCB: 0.1 to 2 μg/mL drug, samples from the third day
Experimental: HT-1080 cells producing GA-GCB were plated in duplicate 6-well plates and the Production Medium adjusted to the following concentrations of kifunensine or swainsonine: 0 (no drug), 0.1, 0.25, 0.5, 1, and 2 μg/mL. The medium was harvested and the cells refed every 24 hours for three days. The samples from the third day were subjected to isoelectric focusing (IEF) analysis. The effect of kifunensine and swainsonine on the molecular charge of GA-GCB is shown by the IEF analysis.

[4] = inhibitor 1 μg/ml, across seven harvests

Row | SMILES | reduction of GA-GCB production relative to control ([1]; inhibitor 1 μg/mL, average of seven harvests) [%] | Glucocerebrosidase Activity, Average ± Standard Deviation [1, 4] [mg/L] | Glucocerebrosidase Activity, Harvest 2 ([1]; inhibitor 1 μg/ml) [mg/L] | Glucocerebrosidase Activity, Harvest 3 ([1]; inhibitor 1 μg/ml) [mg/L] | Glucocerebrosidase Activity, Harvest 4 ([1]; inhibitor 1 μg/ml) [mg/L] | Glucocerebrosidase Activity, Harvest 5 ([1]; inhibitor 1 μg/ml) [mg/L] | Glucocerebrosidase Activity, Harvest 6 ([1]; inhibitor 1 μg/ml) [mg/L] | Glucocerebrosidase Activity, Harvest 7 ([1]; inhibitor 1 μg/ml) [mg/L] | Glucocerebrosidase Activity, Harvest 1 ([1]; inhibitor 1 μg/ml) [mg/L] | greater uptake of GA-GCB with kifunensine than with swainsonine [2] | apparent isoelectric point (pI) of GA-GCB [3] | shift in pI of GA-GCB, compared between the drugs ([3]; highest concentration tested (2 μg/mL)) | average GA-GCB production level across the seven harvests ([1]; inhibitor 1 μg/mL) [mg/L] | GA-GCB production level, average ± SD [1, 4] [mg/L]
1 | O=C1N[C@@H]2[C@@H](O)[C@@H](O)[C@H](O)[C@@H](CO)N2C1=O [Kifunensine, kifunensine] | 44 | 21.3 ± 2.8 | 22.9 | 17.7 | 21.2 | 18.4 | 21.0 | 22.0 | 26.0 | approximately 2 fold | concentration dependent increase | much larger shift in pI than swainsonine |  | 
2 | O[C@H]1[C@H]2[C@H](O)CCCN2C[C@H]1O [Swainsonine, swainsonine] |  |  | 17.4 | 28.5 | 27.0 | 22.9 | 25.0 | 22.3 | 28.6 |  | concentration dependent increase |  | 24.5 ± 4.0 | 24.5 ± 4.0
